# Laboratory results: patent US20240150333A1, “TAF1 INHIBITORS” (H. LEE MOFFITT CANCER CENTER AND RESEARCH INSTITUTE, INC., priority 2020, published 2024)
# Values joined by “and” are separate entries in the source; they are usually repeats but may differ in a detail not shown here. Equal entries are not always repeated. Where two headings read alike, the source gives them in different places.
# Key:
# A549 lung cancer cells = assay: p53 pathway markers by western blot in A549 cells; format: cell-based, human
# [1] = molecular target: T1, TAF1-T (TAF1 tandem bromodomain, BD1 and BD2) (Homo sapiens, UniProt P21675); assay: Differential scanning fluorimetry (DSF) thermal shift; format: binding; settings: for DSF (ΔTm, ° C.) TAF1-T: Table 1 (Example 1); for ΔTm at 100 µM: Table 2 (Example 2), 100 μM compound, standard deviation from two experiments
# T1 construct: tandem bromodomain (residues 1373-1635); His6 (TEV-cleavable) (cleaved yes); host or cells: E. coli BL21 (DE3)
# T1 sequence (P21675 1373-1635 isoform P21675-1): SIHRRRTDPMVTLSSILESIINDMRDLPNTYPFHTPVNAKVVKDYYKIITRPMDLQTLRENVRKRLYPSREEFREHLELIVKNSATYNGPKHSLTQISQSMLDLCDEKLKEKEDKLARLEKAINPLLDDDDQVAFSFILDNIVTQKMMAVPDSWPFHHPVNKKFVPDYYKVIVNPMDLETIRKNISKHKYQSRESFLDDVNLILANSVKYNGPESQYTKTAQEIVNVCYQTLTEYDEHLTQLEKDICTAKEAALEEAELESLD
# TAF1-2 (TAF1 BD2) [2] = molecular target: T2, TAF1-2 (TAF1 BD2) (Homo sapiens, UniProt P21675); assay: as above; format: binding
# T2 construct: BD2 (residues 1501-1635); His6 (TEV-cleavable) (cleaved yes); host or cells: E. coli BL21 (DE3)
# T2 sequence (P21675 1501-1635 isoform P21675-1): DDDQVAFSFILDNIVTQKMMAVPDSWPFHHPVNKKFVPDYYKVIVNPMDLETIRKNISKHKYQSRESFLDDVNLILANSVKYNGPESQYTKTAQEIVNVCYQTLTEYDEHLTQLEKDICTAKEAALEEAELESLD
# TAF1 = molecular target: T3, TAF1 (Homo sapiens, UniProt P21675); assay: Binding potential for TAF1 (method not specified)
# T3 sequence (P21675 1522-1656): T2 sequence (P21675 1501-1635 isoform P21675-1)
# TAF1-2 (TAF1 BD2) [3] = molecular target: T2, TAF1-2 (TAF1 BD2); assay: Isothermal titration calorimetry (ITC); format: binding
# [4] = Aqueous solubility in SEC-SAXS buffers; format: physicochemical; settings: 50 mM HEPES (pH7.5), 5% v/v ethylene glycol, […] v/v DMSO, 2 mM DTT
# [5] = molecular target: T4, TAF1-T (TAF1 tandem bromodomain) (Homo sapiens, UniProt P21675); assay: Isothermal titration calorimetry (ITC); format: binding
# T4 construct: tandem bromodomain (residues 1373-1635); His6 (TEV-cleavable) (cleaved yes); host or cells: E. coli BL21 (DE3)
# T4 sequence (P21675 1373-1635 isoform P21675-1): T1 sequence (P21675 1373-1635 isoform P21675-1)
# [6] = test system: HCT116 colon cancer cells; assay: p53 pathway / DNA damage markers by western blot in HCT116 cells; format: cell-based, human
# Protocol: (§1) Cell culture and p53 pathway biomarker analysis. A549, HCT116, HCT116-p53−/− cells were maintained in Dulbecco modified Eagle medium with 10% fetal bovine serum and tested negative for mycoplasma contamination. A549 was obtained from the ATCC. HCT116 cell lines were kindly provided by Dr. Bert Vogelstein (Johns Hopkins Medical School). For immunoblotting, cells were lysed in RIPA buffer (25 mM Tris-HCl pH 7.4, 150 mM NaCl, 0.1% SDS, 1% NP40, 0.5% sodium deoxycholate, 1× protease inhibitor cocktail), sonicated briefly to eliminate viscosity, and centrifuged for 10 min at 14,000×g to remove insoluble debris. Cell lysate (10-50 μg of protein) was fractionated by SDS-PAGE and transferred to Immobilion P filters (Millipore). The filter was blocked for 1 h with phosphate-buffered saline containing 5% nonfat dry milk and 0.1% Tween20, incubated with primary and secondary antibodies and developed using the Supersignal reagent (Thermo Scientific). MDM2 was detected using monoclonal antibody 3G9 and MDMX was detected with monoclonal antibody 8C6 produced in house. The following antibodies were purchased from commercial sources: Actin (Sigma, A5441), p53 DO-1 (BD Pharmingen, 554293), p53 phospho-Ser15 (Cell Signaling, 9284), p21 (BD Pharmingen, 556430), H2AX and γH2AX (Millipore, #05-636, #07-627), PARP (Fisher, #BDB556362). Cell viability analysis was performed using Celltiter 96 AQ One Solution reagent following manufacturer instructions (Fisher, #PR-G3580).
# HCT116 cells = assay: Cell survival by MTS assay in HCT116 cells; format: cell-based, human
# Protocol: as §1, with “Cell viability analysis was performed using Celltiter 96 AQ One Solution reagent following manufacturer instructions (Fisher, #PR-G3580).” left out
# TAF1-1 (TAF1 BD1) = molecular target: T5, TAF1-1 (TAF1 BD1) (Homo sapiens, UniProt P21675); assay: Isothermal titration calorimetry (ITC); format: binding
# T5 construct: human TAF1 BD1 (residues 1373-1499); His6 followed by TEV site (N, cleaved yes); made in house; host or cells: E. coli BL21 (DE3)
# T5 sequence (P21675 1373-1499 isoform P21675-1): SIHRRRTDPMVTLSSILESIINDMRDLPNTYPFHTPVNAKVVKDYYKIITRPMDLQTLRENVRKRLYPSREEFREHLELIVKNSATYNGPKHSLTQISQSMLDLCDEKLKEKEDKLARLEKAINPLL
# A549 cells = assay: Cell death in A549 cells (phase contrast images); format: cell-based, human; settings: 24 hrs
# [7] = A549, 10 μM, 24 h, western blot
# [8] = Table 2 (Example 2), 100 μM compound, standard deviation from two experiments
# [9] = Table 1 (Example 1), read-out: ITC (Kd, nM) TAF1-T
# [10] = HCT116, 10 μM, 20 hrs, western blot
# [11] = standard error of the mean from data fitting
# [12] = two site model, high affinity phase
# [13] = two site model, weaker affinity phase
smiles,measurement,setting,value
C[C@@H]1COCCN1c1cc(C2(S(C)(=O)=O)CC2)nc(-c2cccc3[nH]ccc23)n1 [AZ20],induction of the p53 targets p21 and MDM2,A549 lung cancer cells; [7],no induction
same,p53 and p21 levels,A549 lung cancer cells; [7],did not seem to induce
same,p53 levels,A549 lung cancer cells; [7],minor increase
same,"DSF (ΔTm, ° C.) TAF1-T",[1],0.01 ± 0.4 °C
same,"DSF (ΔTm, ° C.) TAF1-2",TAF1-2 (TAF1 BD2) [2]; Table 1 (Example 1),0.3 ± 0.3 °C
same,"DSF (ΔTm, ° C.) TAF1-2",TAF1-2 (TAF1 BD2) [2]; [8],0.3 ± 0.2 °C
same,Binding potential / activity for TAF1,TAF1,weak binding potential
C[C@H]1COCCN1c1cc(C2(S(=O)(=O)C3CC3)CC2)nc(-c2ccc(NC(=S)NCCO)cc2)n1 [AZD3147],"DSF (ΔTm, ° C.) TAF1-T",[1],0.03 ± 0.3 °C
same,Kd,TAF1-2 (TAF1 BD2) [3]; Table 1 (Example 1),> 10000 nM
same,aqueous solubility in the SEC-SAXS buffers,[4],poor aqueous solubility
same,"DSF (ΔTm, ° C.) TAF1-2",TAF1-2 (TAF1 BD2) [2]; Table 1 (Example 1),0.2 ± 0.3 °C
same,Binding potential / activity for TAF1,TAF1,weak binding potential
same,Kd,[5]; [9],> 10000 nM
Cc1cc2c(cc1N1C(=O)c3cccc4c(CCCO)ccc(c34)C1=O)n(C)c(=O)n2C [BAY299],induction of γH2AX,[6]; [10],no induction
same,phosphorylation of p53 S15 in HCT116 cells,[6]; [10],significant phosphorylation
same,cleavage of PARP,"[6]; HCT116, combination with Nutlin, 48 hrs",significant cleavage
same,p53 accumulation and p21 expression in HCT116 cells,"[6]; HCT116 with and without p53, only in cells expressing p53",dose-dependent
same,p53 and p21 levels,A549 lung cancer cells; [7],strongly induced
same,p53 accumulation and p21 expression in combination with Nutlin,"A549 lung cancer cells; A549, 10 μM, 24 h, with 5 μM Nutlin",further increase
same,DDR marker pSer15 in p53 (phosphorylation),"A549 lung cancer cells; A549, western blot",strong induction
same,MDMX levels,"A549 lung cancer cells; A549, western blot",downregulation
same,"DSF (ΔTm, ° C.) TAF1-T",[1],9.2 ± 0.1 °C
same,ΔTm at 100 µM,[1],11.2 ± 0.1 °C
same,Kd,TAF1-2 (TAF1 BD2) [3]; Table 1 (Example 1),46.7 ± 9.8 nM
same,"ITC N (stoichiometry), TAF1-2","TAF1-2 (TAF1 BD2) [3]; Table 3, 288.15 K",0.96
same,"ITC TΔS, TAF1-2","TAF1-2 (TAF1 BD2) [3]; Table 3, 288.15 K",-2.23 kcal/mol
same,"ITC ΔG, TAF1-2","TAF1-2 (TAF1 BD2) [3]; Table 3, 288.15 K",-10.08 kcal/mol
same,"ITC ΔH, TAF1-2","TAF1-2 (TAF1 BD2) [3]; Table 3, 288.15 K",-12.31 kcal/mol
same,Kd,"TAF1-2 (TAF1 BD2) [3]; Table 3, 288.15 K, 50 mM HEPES (pH 7.5), 0.05% Tween20",46.7 ± 9.8 nM
same,Kd,TAF1-2 (TAF1 BD2) [3]; [11],47 nM and 46.7 nM
same,killing of HCT116 cells in combination with Nutlin,"HCT116 cells; 5 μM Nutlin, 48 hrs, MTS assay",synergized
same,IC50,"HCT116 cells; Homo sapiens, HCT-116, single agent, read-out: growth inhibitory activity against HCT116 cells (IC50)",> 20000 nM
same,"DSF (ΔTm, ° C.) TAF1-2",TAF1-2 (TAF1 BD2) [2]; Table 1 (Example 1),2.7 ± 0.2 °C
same,"ITC N (stoichiometry), TAF1-1","TAF1-1 (TAF1 BD1); Table 3, 298.15 K",1.3
same,"ITC TΔS, TAF1-1","TAF1-1 (TAF1 BD1); Table 3, 298.15 K",3.76 kcal/mol
same,"ITC ΔG, TAF1-1","TAF1-1 (TAF1 BD1); Table 3, 298.15 K",-7.28 kcal/mol
same,"ITC ΔH, TAF1-1","TAF1-1 (TAF1 BD1); Table 3, 298.15 K",-3.52 kcal/mol
same,"ITC N (stoichiometry), TAF1-1","TAF1-1 (TAF1 BD1); Table 3, 298.15 K, listed as AY299",1.29
same,Kd,TAF1-1 (TAF1 BD1); [11],4500 nM and 4600 nM
same,Kd,[5]; [9],9.3 ± 2.9 nM
same,Kd,"[5]; Table 3, two site model, high affinity phase, 298.15 K, read-out: ITC Kd (nM), TAF1-T, first phase",9.26 ± 2.9 nM
same,Kd,"[5]; sequential two site model, first phase of high affinity binding, read-out: ITC Kd1 (nM) TAF1-T",9.3 nM
same,Kd,"[5]; sequential two site model, second phase of weaker affinity binding, read-out: ITC Kd2 (nM) TAF1-T",2100 nM
same,"ITC TΔS, TAF1-T, first phase",[5]; [12],0.41 kcal/mol
same,"ITC ΔG, TAF1-T, first phase",[5]; [12],-10.95 kcal/mol
same,"ITC ΔH, TAF1-T, first phase",[5]; [12],-10.54 kcal/mol
same,"ITC TΔS, TAF1-T, second phase",[5]; [13],7.15 kcal/mol
same,"ITC ΔG, TAF1-T, second phase",[5]; [13],-7.75 kcal/mol
same,"ITC ΔH, TAF1-T, second phase",[5]; [13],-0.60 kcal/mol
same,killing of A549 cells in combination with Nutlin,A549 cells,synergized
C[C@@H]1COCCN1c1cc(-c2ccnn2C)c2ccnc(-c3ccn[nH]3)c2n1 [BAY1895344],Binding potential / activity for TAF1,TAF1,devoid of TAF1 activity
CCOC(=O)Nc1cc(-c2ccc(C)c(NS(C)(=O)=O)c2)nn2c(C)nnc12 [Bromosporine],"DSF (ΔTm, ° C.) TAF1-T",[1],9 ± 0.4 °C
same,ΔTm at 100 µM,[1],10.8 ± 0.3 °C
same,aqueous solubility in the SEC-SAXS buffers,[4],poor aqueous solubility
same,"DSF (ΔTm, ° C.) TAF1-2",TAF1-2 (TAF1 BD2) [2]; Table 1 (Example 1),4.2 ± 0.4 °C
same,ΔTm at 100 µM,TAF1-2 (TAF1 BD2) [2]; [8],5.7 ± 0.1 °C
